{"source": "patent US11279710B2", "about": "“Processes for preparing ACC inhibitors and solid forms thereof” (Gilead Sciences, Inc., priority 2017, dated 2022)", "origin": "cited, not measured here", "key": {"ACC1": {"system": "ACC1", "conditions": "ACC1 isolated from rat, mouse, monkey and human"}, "ACC2": {"system": "ACC2", "conditions": "ACC2 isolated from rat, mouse, monkey and human"}, "pyruvate carboxylase": {"molecular_target": "T1, pyruvate carboxylase (Homo sapiens, UniProt P11498)", "T1 sequence (P11498 21-1178)": "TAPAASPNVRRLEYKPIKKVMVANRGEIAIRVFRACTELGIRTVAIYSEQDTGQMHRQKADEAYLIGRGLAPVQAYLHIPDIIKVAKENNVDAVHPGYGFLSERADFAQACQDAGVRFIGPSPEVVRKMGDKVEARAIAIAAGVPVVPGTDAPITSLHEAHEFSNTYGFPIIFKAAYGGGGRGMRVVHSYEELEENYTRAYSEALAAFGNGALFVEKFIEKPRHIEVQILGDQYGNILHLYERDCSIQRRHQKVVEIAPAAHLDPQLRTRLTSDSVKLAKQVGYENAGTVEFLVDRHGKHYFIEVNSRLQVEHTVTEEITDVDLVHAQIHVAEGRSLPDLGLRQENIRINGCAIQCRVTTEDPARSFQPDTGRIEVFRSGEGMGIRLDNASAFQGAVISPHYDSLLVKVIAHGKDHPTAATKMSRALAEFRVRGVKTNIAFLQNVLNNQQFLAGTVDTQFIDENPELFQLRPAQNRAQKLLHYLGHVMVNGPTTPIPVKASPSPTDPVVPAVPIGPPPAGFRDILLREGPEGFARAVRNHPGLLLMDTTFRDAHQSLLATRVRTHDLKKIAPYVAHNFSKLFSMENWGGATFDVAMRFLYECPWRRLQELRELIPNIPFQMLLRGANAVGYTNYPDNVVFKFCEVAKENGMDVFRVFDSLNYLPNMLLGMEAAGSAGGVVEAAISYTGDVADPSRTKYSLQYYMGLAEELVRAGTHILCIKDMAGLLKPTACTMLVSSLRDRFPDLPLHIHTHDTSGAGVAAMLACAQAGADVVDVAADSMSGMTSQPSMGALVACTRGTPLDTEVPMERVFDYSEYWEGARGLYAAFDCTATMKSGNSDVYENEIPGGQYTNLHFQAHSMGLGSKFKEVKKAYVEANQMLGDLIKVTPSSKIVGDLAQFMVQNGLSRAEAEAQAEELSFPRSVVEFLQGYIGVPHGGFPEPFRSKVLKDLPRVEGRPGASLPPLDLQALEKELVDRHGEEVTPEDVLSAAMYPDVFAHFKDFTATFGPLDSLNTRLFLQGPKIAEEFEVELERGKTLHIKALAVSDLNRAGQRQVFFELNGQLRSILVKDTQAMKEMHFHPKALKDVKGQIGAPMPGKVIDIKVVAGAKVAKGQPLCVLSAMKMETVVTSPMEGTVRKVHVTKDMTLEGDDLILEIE"}, "[1]": {"molecular_target": "T2, propionyl-CoA carboxylase (Homo sapiens, UniProt P05165+P05166)", "T2 sequence (P05165 53-728)": "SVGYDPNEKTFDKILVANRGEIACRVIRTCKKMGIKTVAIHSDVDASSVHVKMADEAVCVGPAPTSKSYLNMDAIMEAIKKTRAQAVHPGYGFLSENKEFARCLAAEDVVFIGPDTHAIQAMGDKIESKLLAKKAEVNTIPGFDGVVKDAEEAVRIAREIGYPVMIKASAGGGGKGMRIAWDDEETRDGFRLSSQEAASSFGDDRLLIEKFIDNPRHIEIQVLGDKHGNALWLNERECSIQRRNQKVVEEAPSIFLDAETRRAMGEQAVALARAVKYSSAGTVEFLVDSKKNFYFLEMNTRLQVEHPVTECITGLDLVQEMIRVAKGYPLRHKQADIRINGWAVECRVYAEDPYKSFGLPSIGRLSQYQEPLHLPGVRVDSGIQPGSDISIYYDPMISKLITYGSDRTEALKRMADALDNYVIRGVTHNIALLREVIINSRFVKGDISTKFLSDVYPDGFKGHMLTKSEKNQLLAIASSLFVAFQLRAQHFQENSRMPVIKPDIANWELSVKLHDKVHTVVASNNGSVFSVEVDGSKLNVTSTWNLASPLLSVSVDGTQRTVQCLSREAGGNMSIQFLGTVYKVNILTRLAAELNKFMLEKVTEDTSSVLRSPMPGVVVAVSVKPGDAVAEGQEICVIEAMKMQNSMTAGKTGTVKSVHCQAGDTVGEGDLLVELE", "T2 sequence (P05166 29-539)": "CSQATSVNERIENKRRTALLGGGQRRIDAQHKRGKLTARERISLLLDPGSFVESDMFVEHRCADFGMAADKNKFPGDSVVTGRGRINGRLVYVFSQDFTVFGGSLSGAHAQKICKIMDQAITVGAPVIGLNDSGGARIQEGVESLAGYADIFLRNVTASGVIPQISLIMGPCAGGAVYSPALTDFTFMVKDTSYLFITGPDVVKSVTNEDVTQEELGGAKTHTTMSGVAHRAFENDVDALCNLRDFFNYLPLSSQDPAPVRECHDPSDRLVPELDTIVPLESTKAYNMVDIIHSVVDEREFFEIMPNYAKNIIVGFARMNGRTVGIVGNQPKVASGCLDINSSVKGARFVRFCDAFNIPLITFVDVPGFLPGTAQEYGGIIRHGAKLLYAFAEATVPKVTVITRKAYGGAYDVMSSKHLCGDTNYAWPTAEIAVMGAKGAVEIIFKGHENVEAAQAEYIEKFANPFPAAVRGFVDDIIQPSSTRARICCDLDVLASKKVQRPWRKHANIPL"}, "[2]": {"conditions": "sucrose-fed rats, three weeks"}, "[3]": {"system": "insulin-resistant rat muscle tissue", "conditions": "within 30 min of compound administration"}, "[4]": {"conditions": "rats, acute (46 min) treatment"}}}
{"molecule": "COc1ccccc1[C@H](Cn1c(=O)n(C(C)(C)C(=O)O)c(=O)c2c(C)c(-c3ncco3)sc21)OC1CCOCC1", "note": "[Compound I, (R)-2-(1-(2-(2-methoxyphenyl)-2-((tetrahydro-2H-pyran-4-yl)oxy)ethyl)-5-methyl-6-(oxazol-2-yl)-2,4-dioxo-1,2-dihydrothieno[2,3-d]pyrimidin-3(4H)-yl)-2-methylpropanoic acid]", "values": [{"measurement": "ACC inhibitory activity", "setting": "ACC", "result": "exhibits ACC inhibitory activity"}]}
{"molecule": "O=C(c1c2ccccc2cc2ccccc12)N1CCC(N2CCC[C@@H](C(=O)N3CCOCC3)C2)CC1", "note": "[CP-640186]", "values": [{"measurement": "IC50", "setting": "ACC1", "result": "~60", "unit": "nM"}, {"measurement": "IC50", "setting": "ACC2", "result": "~60", "unit": "nM"}, {"measurement": "inhibition of pyruvate carboxylase", "setting": "pyruvate carboxylase", "result": "without inhibiting"}, {"measurement": "inhibition of propionyl-CoA carboxylase", "setting": "[1]", "result": "without inhibiting"}, {"measurement": "CPT-I activity", "setting": "Hep-G2 cells", "result": "increased"}, {"measurement": "FA synthesis", "setting": "Hep-G2 cells", "result": "reduced"}, {"measurement": "apoA1 secretion", "setting": "Hep-G2 cells", "result": "without affecting"}, {"measurement": "apoB secretion", "setting": "Hep-G2 cells", "result": "reduced"}, {"measurement": "cholesterol synthesis", "setting": "Hep-G2 cells", "result": "without affecting"}, {"measurement": "triglyceride synthesis and secretion", "setting": "Hep-G2 cells", "result": "reduced"}, {"measurement": "FA oxidation", "setting": "C2C12 cells", "result": "stimulated"}, {"measurement": "FA oxidation", "setting": "rat muscle slices", "result": "stimulated"}, {"measurement": "liver and adipose tissue FA synthesis", "setting": "experimental animals", "result": "reduced"}, {"measurement": "whole body FA oxidation", "setting": "experimental animals", "result": "increased"}, {"measurement": "malonyl-CoA concentration", "setting": "lipogenic and oxidative tissues, fed and fasted state", "result": "acutely reduced"}, {"measurement": "hyperinsulinemia produced by the high sucrose diet", "setting": "[2]", "result": "reduced"}, {"measurement": "insulin sensitivity", "setting": "[2]", "result": "improved"}, {"measurement": "lean body mass", "setting": "[2]", "result": "without reducing"}, {"measurement": "leptin levels", "setting": "[2]", "result": "reduced"}, {"measurement": "liver, muscle and adipose triglycerides", "setting": "[2]", "result": "time- and dose-dependently reduced"}, {"measurement": "plasma glucose levels", "setting": "[2]", "result": "without changing"}, {"measurement": "body weight", "setting": "[2]; due to selective fat reduction", "result": "reduced"}, {"measurement": "insulin sensitivity", "setting": "[3]", "result": "stimulation"}, {"measurement": "FA clearance", "setting": "[4]", "result": "stimulated"}, {"measurement": "glucose clearance", "setting": "[4]", "result": "without decreasing"}]}
{"molecule": "CO[C@H]1CCCC[C@@H](c2ccccc2)OC(=O)[C@@H](C)[C@@]2(O)O[C@H]([C@@H](C)[C@H](O)[C@H]2OC)[C@@H](C)/C=C/[C@H]1OC", "note": "[soraphen A]", "values": [{"measurement": "lipogenesis", "setting": "human liposarcoma", "result": "inhibited"}, {"measurement": "tumor cell growth", "setting": "human liposarcoma", "result": "inhibited"}]}
